{"source": "patent US20110039314A1", "about": "“Composition for Catalytic Amide Production and Uses Thereof” (LOYOLA UNIVERSITY OF CHICAGO, priority 2009, published 2011)", "molecules": {"B1": {"name": "Co-type nitrile hydratase from Pseudonocardia thermophile JCM 3095 (PtNHase) (Pseudonocardia thermophila) (protein)", "chain 1": "MTENILRKSDEEIQKEITARVKALESMLIEQGILTTSMIDRMAEIYENEVGPHLGAKVVVKAWTDPEFKKRLLADGTEACKELGIGGLQGEDMMWVENTDEVHHVVVCTLCSCYPWPVLGLPPNWFKEPQYRSRVVREPRQLLKEEFGFEVPPSKEIKVWDSSSEMRFVVLPQRPAGTDGWSEEELATLVTRESMIGVEPAKAV", "chain 2": "MNGVYDVGGTDGLGPINRPADEPVFRAEWEKVAFAMFPATFRAGFMGLDEFRFGIEQMNPAEYLESPYYWHWIRTYIHHGVRTGKIDLEELERRTQYYRENPDAPLPEHEQKPELIEFVNQAVYGGLPASREVDRPPKFKEGDVVRFSTASPKGHARRARYVRGKTGTVVKHHGAYIYPDTAGNGLGECPEHLYTVRFTAQELWGPEGDPNSSVYYDCWEPYIELVDTKAAAA"}}, "key": {"[1]": {"molecular_target": "Fe-type nitrile hydratase from Comamonas testosteroni Ni1 (CtNHase) (Comamonas testosteroni, UniProt J9PBS0+J9PBS1)", "conditions": "previously reported value (ref. 34); cited from earlier work"}, "[2]": {"molecular_target": "Co-type nitrile hydratase from Pseudonocardia thermophile JCM 3095 (PtNHase) (Pseudonocardia thermophila, UniProt Q7SID2+Q7SID3)", "conditions": "previously reported value (ref. 21); cited from earlier work"}, "[3]": {"substrate": "N#Cc1ccccc1", "test": "purified protein, by the assay type", "conditions": "other: benzonitrile hydrolysis, solution, pH 7.6, 25° C."}}}
{"molecule": "N#CCCCCC(=O)O", "note": "[cyanovaleric acid]", "values": [{"measurement": "Km", "setting": "[1]", "result": 3200, "unit": "µM"}]}
{"molecule": "N#Cc1ccccc1", "note": "[benzonitrile]", "values": [{"measurement": "Km", "setting": "[2]", "result": 19, "unit": "µM"}, {"measurement": "kcat", "setting": "[2]", "result": 120, "unit": "s⁻¹"}]}
{"molecule": "B1", "values": [{"measurement": "Km", "setting": "[3]", "result": 18, "unit": "µM"}, {"measurement": "kcat", "setting": "[3]", "result": 123, "unit": "s⁻¹"}]}
